Data as given in patent US9458123B2, “Methods, pharmaceutical compositions, therapeutic systems, and compounds for treating B cell malignancies” (University of Rochester, priority 2012, dated 2016).
“Also recorded” adds a separate entry of the source.

How the values were obtained:
Assay type in all cases: cell-based
[1] = system: PMA-induced NF-κB activation in 293T-NF-luc cells; assay: NF-κB luciferase reporter assay, PMA stimulation; settings: PMA 100 ng/ml, 6 hours
Procedure: In FIG. 1B, 293T-NF-luc cells were pretreated with the indicated concentrations of NSC697923 or DMSO (final concentration 0.2%; control) for 1 hour. The cells were then stimulated with PMA (100 ng/ml) or TNFα(10 ng/ml) for 6 hours, and the green fluorescence (from GFP for normalization) and luciferase activity in the cell lysate were measured. Data were expressed as the percentage activity of the control (mean+/−standard deviation (SD); n=3). […] The cells were harvested at the indicated times after stimulation, and phosphorylation of IKK and IκBα were analyzed by western blotting. Analysis of actin was used as the loading control.
FIGS. 2A-2D show the effect of NSC697923 related compounds on NF-κB activation induced by PMA. […]
HEK293T cells were transfected with the pNF-κB luciferase reporter construct, which contains four copies of the NF-κB binding site upstream of firefly luciferase gene (Moran et al., “Protein Kinase C-Associated Kinase can Activate NFkappaB in Both a Kinase-Dependent and a Kinase Independent Manner,” J. Biol. Chem. 278:21526-21533 (2003), which is hereby incorporated by reference in its entirety), together with the pBabe-puro for selection. Individual clones, selected with 1.5 μg/m puromycin, were assessed for NF-κB-luciferase reporter activation by TNFα and PMA. […]

primary DLBCL cells = assay: Apoptosis of primary DLBCL cells, annexin V; settings: primary cells from two DLBCL patients, 24 hours
Procedure: The primary cancer cells, prepared from two DLBCL patients and grown in culture medium for seven days, were seeded at 4.5×10^5 cells/mL and treated with the indicated concentrations of NSC697923 for 24 hours. The apoptotic cells were analyzed as described in FIG. 7C. Shown are the averages from two independent experiments.
(§1) Apoptosis was assayed using the 7AAD/annexin V apoptosis kit (BD Bioscience) as previously described (Kim et al., “Protein Kinase C-Associated Kinase is Required for NF-kappaB Signaling and Survival in Diffuse Large B-Cell Lymphoma Cells,” Blood 111:1644-1653 (2008), which is hereby incorporated by reference in its entirety). Analysis of the cell cycle distribution of the treated cells was carried out with propidium iodide (PI) and BrdU double staining as previously described (DeRan et al., “Assessing G1-to-S-Phase Progression after Genotoxic Stress,” Methods Mol. Biol. 782:221-230 (2011) and Su et al., “DNA Damage Induces Downregulation of Histone Gene Expression Through the G1 Checkpoint Pathway,” EMBO. J. 23:1133-1143 (2004), each of which is hereby incorporated by reference in its entirety).

OCI-Ly10 cells = assay: Apoptosis of OCI-Ly10 cells (western blot, 7AAD/annexin V flow cytometry)
Procedure: The indicated ABC DLBCL cells were seeded at 3×10^5 cells/ml in 6-well plates and cultured in the presence of DMSO (0.2%, control) or various concentrations of NSC697923 for 24 hours. The live and dead cells were counted using the trypan blue exclusion assay. Shown are the means from three separate experiments. The average number of live cells in the control was set at 100. […] The levels of the indicated proteins were analyzed by western blotting. For caspase 3 detection, a mixture of an antibody for the uncleaved form and an antibody specific for the cleaved form was used. In FIG. 7C, OCI-Ly10 cells were treated as in FIG. 7A. The apoptotic cells (Annexin V positive cells) were measured by flow cytometry as described in Example 1 infra. A representative result from three independent experiments is depicted. […] BrdU was then added into the culture medium for 30 minutes before the cell-cycle distribution of the treated cells was analyzed as described in Example 1 infra. Shown are the averages from two independent experiments. […] BrdU was then added into the culture medium for 30 minutes before the cell-cycle distribution of the treated cells was analyzed as described in Example 1 infra. Shown are the averages from two independent experiments.
as §1

SUDHL-6 = assay: Proliferation and survival of GCB DLBCL cells (trypan blue, annexin V); settings: SUDHL-6, 24 hours
Procedure: (§2) In FIG. 8A, the GCB DLBCL cells were plated at the indicated cell concentrations and treated with various concentrations of NSC697923 for 24 hours. The effects of NSC697923 on the growth of these cells were analyzed as described in FIG. 7A. In FIG. 8B, the cells were plated at a concentration of 4×10^5 cells/ml and treated with NSC697923 as in FIG. 8A, and the apoptotic cells were analyzed as described in FIG. 7C.
as §1

OCI-Ly7 = assay: as above; settings: OCI-Ly7, 24 hours
Procedure: as §2, §1

ABC DLBCL cells = assay: Growth of ABC DLBCL cells, trypan blue exclusion assay; settings: including OCI-Ly3 cells, 24 hours
Procedure: The indicated ABC DLBCL cells were seeded at 3×10^5 cells/ml in 6-well plates and cultured in the presence of DMSO (0.2%, control) or various concentrations of NSC697923 for 24 hours. The live and dead cells were counted using the trypan blue exclusion assay. Shown are the means from three separate experiments. The average number of live cells in the control was set at 100. […] The levels of the indicated proteins were analyzed by western blotting. For caspase 3 detection, a mixture of an antibody for the uncleaved form and an antibody specific for the cleaved form was used. In FIG. 7C, OCI-Ly10 cells were treated as in FIG. 7A. The apoptotic cells (Annexin V positive cells) were measured by flow cytometry as described in Example 1 infra. A representative result from three independent experiments is depicted. […] BrdU was then added into the culture medium for 30 minutes before the cell-cycle distribution of the treated cells was analyzed as described in Example 1 infra. Shown are the averages from two independent experiments. […] BrdU was then added into the culture medium for 30 minutes before the cell-cycle distribution of the treated cells was analyzed as described in Example 1 infra. Shown are the averages from two independent experiments. […]

osteosarcoma U2OS cells = assay: Cell viability, trypan blue exclusion assay; settings: 24 hours
Procedure: (§3) 1×10^6 cells were plated in 10 cm plates and cultured overnight. The indicated concentrations of NSC697923 were then added into culture medium for 24 hours before the cell viability was analyzed by trypan blue exclusion assay. Shown are the averages from three independent experiments.
as §1

[2] = system: breast cancer MDA-MB231 cells; assay: Cell viability, trypan blue exclusion assay; settings: 24 hours
Procedure: as §3, §1

SMILES: Cc1ccc(S(=O)(=O)c2ccc([N+](=O)[O-])o2)cc1 [NSC697923, 2-nitro-5-tosylfuran]
- PMA-induced NF-κB activation (luciferase reporter) [1]: selective inhibitory effect; also recorded: inhibits NF-κB activation induced by PMA
- Annexin-positive (apoptotic) cells (primary DLBCL cells): increase in Annexinpositive (apoptotic) cells
- PARP (OCI-Ly10 cells; 5 hours): cleavage of PARP
- caspase 3 (OCI-Ly10 cells; 5 hours): activation of caspase 3
- annexin V-positive cells (OCI-Ly10 cells; 24 hours): increase in annexin V-positive cells
- proliferation and survival (SUDHL-6): inhibited proliferation and survival
- proliferation and survival (OCI-Ly7): inhibited proliferation and survival
- proliferation and survival of ABC DLBCL cells (ABC DLBCL cells): induced proliferation arrest and cell death
- toxic effects on proliferation and survival compared to DLBCL cells (osteosarcoma U2OS cells): much less toxic effects
- toxic effects on proliferation and survival compared to DLBCL cells [2]: much less toxic effects
